“Also recorded” adds a separate entry of the source. Read-outs that look alike come from different tables or passages of the source.
Key:
[1] = system: l-Dopa response; experiment: Dopa response potentiation test; assay type: in vivo, mouse
Protocol: This test is developed by G.M. Everett (Antidepressant drugs,[…] in groups of 3 are pretreated with Pargyline ®40 l mg/kg p.o. about 10-16 hours before the test. […] 1. piloerection, slight salivation, slight increased motor activity 2. piloerection, salivation, marked increased motor activity and irritability 3. piloerection, profuse salivation, marked irritability and reactivity, jumping, squeaking, fighting.

[2] = in vivo; conditions: mouse
Protocol: (§1) The compounds were given by intravenous route to 3 mice. […] Seizures, gait, sedation and grip strength were recorded.
(§2) Acute toxicity was tested by the intraveneous, intraperitoneal and oral routes of administration. […] During the oral route a behavioral scoring system was used in order to relate changes in behavior to dose. The LD50 values were determined graphically from log dose -- response curves based on four doses with three animals per dose. Peripheral parasympatholytic effect was tested in mice by observing the mydriatic effect after intravenous injection (9) (four doses with three animals per dose). PD200 refers to the dose which increases the pupil width by 200%.

[3] = system: mice; experiment: Acute toxicity in mice; conditions: in words
Protocol: as §1, §2

[4] = system: 5-HTP response; experiment: 5-HTP response potentiation test; assay type: in vivo, mouse; conditions: for minimal effective dose: Mus musculus, ip
Protocol: These small movements are quantitatively measured in an activity box, type Animex, which can distinguish between small and gross movements. The activity is measured during 20 minutes and only in the case the animals have a fullblown syndrome.

[5] = system: pupil width (mydriasis); conditions: mouse, in vivo; for PD200 (Table 4) / Peripheral anti-cholinergic action PD200: iv, 10 min
Protocol: as §1, §2

[6] = system: motor activity; experiment: Motor activity in mice; assay type: in vivo, mouse; conditions: for ED50: Mus musculus, 1 h; for ED50 / sedation (motor activity) versus CPZ: mice
Protocol: The exploratory activity of mice was recorded in a locomotion cage in which the movements were counted each time the animals cross-circuits on electrical current in the bottom plate. […] The animals were tested individually. Groups of six mice were used and the mice were only used once. The activity was expressed in percent of the activity of control groups ran simultaneously.
Sedative activity was defined as suppression of normal motor activity. The motor activity in mice was automatically recorded in a locomotion cage in which the movements are counted each time the animal short-circuits an electrical current in the bottom plate. […] The animals were tested individually. Groups of six mice were used. The activity was expressed in percent of the activity of control groups run simultaneously.

[7] = system: uptake of noradrenaline (cortex slices); experiment: Inhibition of the uptake of tritiated noradrenaline in vivo; conditions: for ED50: ip, read-out: Inhibition (50 %) of uptake in vivo, NA; for effectiveness in blocking the uptake of noradrenaline in vivo relative to imipramine: versus imipramine
Protocol: The animals were killed half or one hour after the administration of the drugs in vivo (i.p.). The slices, made from cortex, were preincubated for five minutes and incubated with 0.1 μmole per ml of ^3 H-noradrenaline for further five minutes. The incubation mixture consisted of 0.2 μmole of ^3 H-NA and the brain slices in 2 ml of Krebs-Henseleits buffer, pH 7.4. The radioactive ^3 H-NA taken up in the slices was extracted with ethanol and the amount was determined by liquid scintillation. The dose producing 50 per cent decrease of the active uptake (ED50) was determined graphically from dose response curves. At least four animals were used at each dose level.

[8] = system: uptake of 5-HT (midbrain slices); experiment: Inhibition of the uptake of tritiated 5-HT in vitro (brain slices); assay type: biochemical, mouse
[9] = system: uptake of 5-HT (midbrain slices); experiment: Inhibition of the uptake of tritiated 5-HT in vivo; design: species or system mouse; conditions: for ED50: Mus musculus, ip, 0.5 h, i.p., in vivo, read-out: Inhibition (50 %) of uptake in vivo, 5-HT
Protocol: The drugs were administered intraperitoneally half an hour before the animals were killed and the midbrain was taken out and sliced and incubated in a mixture consisting of, per 100 mg of brain slices, 0.2 μmole of ^3 H-5-HT and 1 μmole of glucose in 2 ml of Krebs-Henseleit buffer, pH 7.4. The incubation time was 5 minutes with 5 minutes of preincubation before ^3 H-5-HT was added. The radioactive ^3 H-5-HT taken up in the slices was extracted with ethanol and the amount was determined by liquid scintillation. The dose producing 50 per cent decrease of the active uptake (ED50) was determined graphically from dose response curves. Active uptake is defined as that part of the radioactive uptake which is inhibited by a high concentration of cocaine. All doses were given at least to four animals.

[10] = system: uptake of noradrenaline (cortex slices); experiment: Inhibition of the uptake of tritiated noradrenaline in vitro (brain slices); assay type: biochemical; conditions: dl-noradrenaline 10^-7 M
[11] = system: rabbits; experiment: Drug induced arrhythmias in rabbits; assay type: in vivo, rabbit
Text: Test drugs were intravenously administered to male rabbits anesthesized wth amytal. The doses were increased stepwise up to the lethal dose and the first dose which induced arrhythmia was noted.

[12] = system: pupil width (mydriasis); experiment: Peripheral anticholinergic (parasympatholytic) effect, mydriasis in mice; conditions: for Peripheral anti-cholinergic action PD200: i.v., dose increasing the pupil by 200%
Protocol: as §1, §2

[13] = system: conditioned avoidance response (CAR); experiment: Conditioned avoidance response in rats; assay type: in vivo, rat; conditions: rat; for CAR CD50: i.p., 60 min; for effect on conditioned avoidance response: in words
Protocol: For this reason the conditioned avoidance test has been developed for initial screening of neuroleptics. Rats were trained to avoid electrical shock by jumping from one compartment to the other in a shuttle box. The conditioned stimulus consists of an auditory signal which after eight seconds was followed by the electrical shock. The rates were trained to a criterion of making eight out of ten responses correctly. The drugs were injected one hour before the test. The avoidance responses are expressed in percentage of those before administration. CD50 is the dose which reduces the avoidance response to 50% of control values.

[14] = Mus musculus, ip; read-out: Potentiation of l-Dopa, effective dose
[15] = ip, i.p., read-out: Motor activity ID50 (Table 4)

Structure (SMILES) | minimal effective dose [1, 14] [mg/kg] | LD50 at 24 h ([2]; iv) [mg/kg] | minimal effective dose [4] [mg/kg] | Peripheral anti-cholinergic action PD200 [5] [mg/kg] | ED50 ([6]; read-out: Motor activity ID50) [mg/kg] | ED50 [7] [mg/kg] | Inhibition (50 %) of uptake in vitro, 5-HT [8] [µg/mL] | ED50 [9] [mg/kg] | Inhibition (50 %) of uptake in vitro, NA [10] [µg/mL] | Peripheral anti-cholinergic action PD200 [12] [mg/kg] | other results
CN(C)C1C=CC2(CC1)c1ccccc1C=Cc1ccc(Cl)cc12 (stereo not drawn) [SIR 114] | > 10 | 22 | > 25 | 15 | 5.5 | > 40 | 7 | > 40 | 2.5 |  | LD50 at 24 h ([2]; ip): 130 mg/kg; acute toxicity versus CPZ [3]: intravenous toxicity in the same range as CPZ; PD200 (Table 4) [5]: 15 mg/kg; ED50 [6, 15]: 5.5 mg/kg; sedation (motor activity) versus CPZ ([6]; in words): caused sedation in the mice at about the same dose as CPZ
CN(C)C1CCC2(CC1)c1ccccc1CCc1ccc(Cl)cc12 (stereo not drawn) [SIR 117] | > 10 | 27 | > 25 | 15 | 14 | > 40 | 5 | > 40 | 1.5 |  | acute toxicity versus CPZ [3]: intravenous toxicity in the same range as CPZ; PD200 (Table 4) [5]: 15 mg/kg; ED50 [6, 15]: 14 mg/kg; sedation (motor activity) versus CPZ ([6]; in words): somewhat less active
NC1C=CC2(CC1)c1ccccc1C=Cc1ccccc12 (stereo not drawn) [CPG 186] | > 10 | 25 | 25 | > 25 | > 50 | 14 | > 10 | 28 | 1.5 |  | anticholinergic effects [5]: devoid of the anticholinergic effects; sedation / tranquilizing effect ([6]; in words): gave sedation only in high doses; blocking the uptake of 5-HT in vivo versus imipramine ([9]; in words): blocks the uptake of 5-HT in equivalent doses; arrhythmia in rabbits ([11]; nonlethal doses, in words): did not cause arrhythmia in nonlethal doses in rabbits; Arrythmia (rabbit), accumulated i.v. dose where there are signs of arrythmia ([11]; rabbit, in vivo, iv): > 10
CN(C)CCCN1c2ccccc2CCc2ccccc21 [Imipramine, reference compound] |  |  | 25 |  | 45 | 6 | 0.1 | 24 | 0.06 | 13 | minimal effective dose ([1]; Mus musculus, ip, read-out: Potentiation of l-Dopa, effective dose): 10 mg/kg; anticholinergic effects ([12]; in words): anticholinergic effects shared by imipramine; potentiation of dl-5-HTP ([4]; reference, in words): constantly potentiated dl-5-HTP
NC1CCC2(CC1)c1ccccc1C=Cc1ccccc12 [CPG 191] | > 10 | 32 | > 25 | < 10 | 53 | > 40 | 2 | > 40 | 1.5 |  | 
CN(C)CCC=C1c2ccccc2CCc2ccccc21 [Amitriptyline, reference compound] |  |  |  |  |  |  |  |  |  |  | l-Dopa syndrome score ([1]; 20 mg/kg i.p. 4 hours before l-Dopa): three
CN(C)C1C=CC2(CC1)c1ccccc1CCc1ccc(Cl)cc12 (stereo not drawn) [SIR 124] |  |  |  |  |  |  |  |  |  |  | CAR CD50 [13]: > 10 mg/kg; effect on conditioned avoidance response [13]: relatively weak effect on CAR
CNC1C=CC2(CC1)c1ccccc1C=Cc1ccccc12 (stereo not drawn) [CPG 264] | > 10 | 25 | > 25 |  | 13 | 1.3 | 1.3 | > 40 | 0.3 | 2.5 | effectiveness in blocking the uptake of noradrenaline in vivo relative to imipramine [7]: about three times as effective as imipramine
CN(C)C1C=CC2(CC1)c1ccccc1CCc1ccc(Cl)cc12 (stereo not drawn) [SIR 125] |  |  |  |  |  |  |  |  |  |  | CAR CD50 [13]: < 2.5 mg/kg; effect on conditioned avoidance response [13]: more potent than the racemate SIR 109 and also more potent than CPZ; also recorded: more potent than both SIR 109 and chlorpromazine; effect on conditioned avoidance response ([13]; listed as β-isomer): the biological activity mainly originates from the β-isomer
CN(C)C1C=CC2(CC1)c1ccccc1C=Cc1ccccc12 (stereo not drawn) [CPG 146] |  | 30 |  |  |  | 1.7 | 4 | > 40 | 0.02 | 1 | effectiveness in blocking the uptake of noradrenaline in vivo relative to imipramine [7]: about three times as effective as imipramine
CN(C)C1CCC2(CC1)c1ccccc1C=Cc1ccccc12 [CPG 147] | 2.5 | 32 | > 25 |  | 27 | 1.5 | 4 | > 40 | 0.05 | 1 | effectiveness in blocking the uptake of noradrenaline in vivo relative to imipramine [7]: about three times as effective as imipramine
CNC1CCC2(CC1)c1ccccc1C=Cc1ccccc12 [CPG 148] | > 10 | 60 | > 25 |  | 35 | > 40 | 3 | > 40 | 1.5 | 3.5 | 
CN(C)C1CCC2(CC1)c1ccccc1C=Cc1ccc(Cl)cc12 (stereo not drawn) [SIR 118] | > 10 | 18 | > 25 | 9 | 11 | > 40 | 4 | > 40 | 1.5 |  | acute toxicity versus CPZ [3]: intravenous toxicity in the same range as CPZ; ED50 [6, 15]: 11 mg/kg; sedation (motor activity) versus CPZ ([6]; in words): somewhat less active
